The values that follow come from PMC8352872, “Biochemical and structural studies of target lectin SapL1 from the emerging opportunistic microfungus Scedosporium apiospermum” (Scientific Reports, 2021).

Series [1] addresses T1, SapL1 (Scedosporium apiospermum, UniProt A0A084FYP2).
T1 construct: gene SAPIO_CDS9261; carbohydrate recognition domain, residues 75-369
As to the kind of experiment: ITC (stoichiometry fixed to […]). Format: binding.

In series [2] the target is T1, SapL1. The series is described as follows: (X-ray) and ITC (stoichiometry fixed to […]). Type of series: binding.
Series [3] concerns the molecule itself. The series is described as follows: dynamic light scattering; protein at 1 mg/mL in 50 mM Tris-HCl, 100 mM NaCl, pH 8.5, measured in triplicate after centrifugation; data not shown.

As a reminder, the Kd is the equilibrium constant for the complex coming apart. The low end stands for tighter binding, the high end for weaker binding. `C[C@@H]1OC(O)[C@@H](O)[C@H](O)[C@@H]1O` (stereo partly drawn) [L-fucose]: the Kd in series [1] was determined as 225 ± 1.52 µM.

In turn, `CO[C@@H]1O[C@@H](C)[C@@H](O)[C@@H](O)[C@@H]1O` [α-methyl-L-fucoside, methyl-α-L-fucopyranoside] returned a Kd in series [2] of 190 ± 1.44 µM.

B1: Scedosporium apiospermum Lectin 1 (SapL1), carbohydrate recognition domain, residues 75-369 (domain or fragment)
chain: MSGVLQISFPAGIAAIRNNSSLRVYEAALDGGVREAQYEGRWAGGKPDNVIATGKIGTPIAATSVGFQYIRVYYVGADNKAREACWDGKGWYTGAFVKDVAPYSSIGAVFLGKNIVVRVYTQNHDNTIQEWVWDSPSTGWTAGANFGAALPGTAIAATSWGAGPYHIRVYFQDTNRNVIESGWDGSGWYTGGLKISNQSPRASLGATSWGESGSSLGIRLYYATQDNLIKEKAWDGGGGWYDGGFQQRSIPGSRVAAIPLPVLRVYLQNGTEVSGITEYAWNSGWVVGQAVLPPA
notes: the first 74 residues of the annotated protein, which the authors suspect to be a misannotation, are left out; In the crystal all 295 amino acids are visible except the N-terminal methionine; also called hypothetical protein XP_016640003.1; source: E. coli BL21trxB (DE3), pProNde vector, purified (IMAC, TEV cleavage, second His-trap pass); not shown: His6, N-terminal, cleaved
The stoichiometry N is the number of molecules, sites or subunits per partner or assembly. B1: the “stoichiometry N” value in series [3] was determined as 2.
